Experimental data: US6054435A, “6-O-substituted macrolides having antibacterial activity” (priority 1999, dated 2000)
≈ marks a conversion by molar mass, not a printed value.

Columns and labels:
Experiment in all cases: in vitro antibacterial activity (MIC), agar dilution
Assay type in all cases: cell-based
Escherichia coli DC-2 = details: organism code SS; BHI agar, 35-37° C., 20 to 24 hours; unit assumed
Method in brief: (§1)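 Agar dilution on BHI agar with twelve successive compound dilutions; plates inoculated by Steers replicator with 1:100 culture dilutions (1:10 for slow growers such as Streptococcus). MIC is the lowest concentration giving no growth, slight haze or sparse colonies versus a drug-free control.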

[1] = tested on: Staphylococcus aureus NCTC10649M; details: organism code EE; BHI agar, 35-37° C., 20 to 24 hours; unit assumed
Method in brief: as §1

[2] = tested on: Streptococcus Pneumonia 5649; details: organism code ZZA; BHI agar, 35-37° C., 20 to 24 hours; unit assumed
Method in brief: as §1

[3] = tested on: Staphylococcus aureus 1775; details: organism code GG; BHI agar, 35-37° C., 20 to 24 hours; unit assumed
Method in brief: as §1

Escherichia coli SS = details: organism code RR; BHI agar, 35-37° C., 20 to 24 hours; unit assumed
Method in brief: as §1

[4] = tested on: Enterococcus faecium ATCC 8043; details: organism code II; BHI agar, 35-37° C., 20 to 24 hours; unit assumed
Method in brief: as §1

[5] = tested on: Staphylococcus aureus CMX 642A; details: organism code DD; BHI agar, 35-37° C., 20 to 24 hours; unit assumed
Method in brief: as §1

[6] = tested on: Streptococcus Pneumonia GYR 1171; details: organism code YY; BHI agar, 35-37° C., 20 to 24 hours; unit assumed
Method in brief: as §1

Candida albicans CCH 442 = details: organism code TT; BHI agar, 35-37° C., 20 to 24 hours; unit assumed
Method in brief: as §1

[7] = tested on: Mycobacterium smegmatis ATCC 114; details: organism code UU; BHI agar, 35-37° C., 20 to 24 hours; unit assumed
Method in brief: as §1

[8] = tested on: Micrococcus luteus ATCC 9341; details: organism code OO; BHI agar, 35-37° C., 20 to 24 hours; unit assumed
Method in brief: (§2)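 Agar dilution in BHI agar, twelve successive compound dilutions. Inoculum 1:100, or 1:10 for slow-growing strains (e.g. Streptococcus), replicator-spotted. Read by eye; MIC = lowest concentration with no growth, slight haze or sparsely isolated colonies relative to growth control.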

Escherichia coli JUHL = details: organism code QQ; BHI agar, 35-37° C., 20 to 24 hours; unit assumed
Method in brief: as §1

[9] = tested on: Haemophilis Influenzae DILL AMP R; details: organism code WW; BHI agar, 35-37° C., 20 to 24 hours; unit assumed
Method in brief: as §1

[10] = tested on: Micrococcus luteus ATCC 4698; details: organism code PP; BHI agar, 35-37° C., 20 to 24 hours; unit assumed
Method in brief: as §2

[11] = tested on: Staphylococcus aureus A-5278; details: organism code CC; BHI agar, 35-37° C., 20 to 24 hours; unit assumed
Method in brief: as §1

[12] = tested on: Streptococcus Pneumonia 5979; details: organism code ZZ; BHI agar, 35-37° C., 20 to 24 hours; unit assumed
Method in brief: as §1

[13] = tested on: Nocardia Asteroides ATCC9970; details: organism code VV; BHI agar, 35-37° C., 20 to 24 hours; unit assumed
Method in brief: as §1

[14] = tested on: Streptococcus pyogenes PIU 2548; details: organism code NN; BHI agar, 35-37° C., 20 to 24 hours; unit assumed
Method in brief: as §1

[15] = tested on: Streptococcus Pneumonia ATCC6303; details: organism code XX; BHI agar, 35-37° C., 20 to 24 hours; unit assumed
Method in brief: as §1

[16] = tested on: Streptococcus pyogenes EES61; details: organism code LL; BHI agar, 35-37° C., 20 to 24 hours; unit assumed
Method in brief: as §1

[17] = tested on: Streptococcus pyogenes 930; details: organism code MM; BHI agar, 35-37° C., 20 to 24 hours; unit assumed
Method in brief: as §1

[18] = tested on: Staphylococcus epidermidis 3519; details: organism code HH; BHI agar, 35-37° C., 20 to 24 hours; unit assumed
Method in brief: as §1

[19] = tested on: Staphylococcus aureus CMX 553; details: organism code FF; BHI agar, 35-37° C., 20 to 24 hours; unit assumed
Method in brief: as §1

[20] = tested on: Streptococcus bovis A-5169; details: organism code JJ; BHI agar, 35-37° C., 20 to 24 hours; unit assumed
Method in brief: as §1

[21] = tested on: Staphylococcus aureus ATCC 6538P; details: organism code AA; BHI agar, 35-37° C., 20 to 24 hours; unit assumed
Method in brief: as §1

[22] = tested on: Streptococcus agalactiae CMX 508; details: organism code KK; BHI agar, 35-37° C., 20 to 24 hours; unit assumed
Method in brief: as §1

[23] = tested on: Staphylococcus aureus A5177; details: organism code BB; BHI agar, 35-37° C., 20 to 24 hours; unit assumed
Method in brief: as §1

SMILES: CC[C@H]1OC(=O)[C@H](C)C(=O)[C@H](C)[C@@H](O[C@@H]2O[C@H](C)C[C@H](N(C)C)[C@H]2O)[C@](C)(OC/C=C/c2ccc(-c3cnc(N)s3)s2)C[C@@H](C)C(=O)[C@H](C)[C@H]2NC(=O)O[C@@]21C [Example 53]
- MIC (Escherichia coli DC-2): 25 µg/mL (≈ 30.5 µM)
- MIC [1]: 0.1 µg/mL (≈ 0.122 µM)
- MIC [2]: 1 µg/mL (≈ 1.22 µM)
- MIC [3]: > 100 µg/mL
- MIC (Escherichia coli SS): 0.2 µg/mL (≈ 0.244 µM)
- MIC [4]: 0.05 µg/mL (≈ 0.061 µM)
- MIC [5]: 0.1 µg/mL (≈ 0.122 µM)
- MIC [6]: 0.03 µg/mL (≈ 0.0366 µM)
- MIC (Candida albicans CCH 442): > 100 µg/mL
- MIC [7]: 3.1 µg/mL (≈ 3.78 µM)
- MIC [8]: 0.01 µg/mL (≈ 0.0122 µM)
- MIC (Escherichia coli JUHL): 50 µg/mL (≈ 61 µM)
- MIC [9]: 8 µg/mL (≈ 9.77 µM)
- MIC [10]: 0.1 µg/mL (≈ 0.122 µM)
- MIC [11]: > 100 µg/mL
- MIC [12]: 16 µg/mL (≈ 19.5 µM)
- MIC [13]: 0.1 µg/mL (≈ 0.122 µM)
- MIC [14]: 0.1 µg/mL (≈ 0.122 µM)
- MIC [15]: 0.03 µg/mL (≈ 0.0366 µM)
- MIC [16]: ≤ 0.005 µg/mL
- MIC [17]: 12.5 µg/mL (≈ 15.3 µM)
- MIC [18]: 0.1 µg/mL (≈ 0.122 µM)
- MIC [19]: 0.1 µg/mL (≈ 0.122 µM)
- MIC [20]: 0.01 µg/mL (≈ 0.0122 µM)
- MIC [21]: 0.1 µg/mL (≈ 0.122 µM)
- MIC [22]: 0.01 µg/mL (≈ 0.0122 µM)
- MIC [23]: 0.1 µg/mL (≈ 0.122 µM)
